Data taken from patent US20230128252A1, “PHARMACEUTICAL COMPOSITIONS” (Shenzhen Pharmacin Co., Ltd., priority 2020, published 2023).
Values after ≈ are worked out from the molar mass of the structure shown. Where two headings read alike, the source gives them in different places.

Columns and labels:
[1] = cited from earlier work; for time to reach peak plasma concentration (Tmax): oral administration
[2] = Solubility of clofazimine in fatty acids; type: physicochemical; conditions: fatty acid, 25 °C
[3] = Compatibility of clofazimine and excipients (60° C., 3 days, HPLC); type: physicochemical; conditions: for Degradation total impurities: 60° C. for 3 days
Procedure: Clofazimine was dissolved into different excipients with different mass ratios, then the mixture was placed in the condition of 60° C. for 3 days. The total degradation impurities were measured by HPLC and summarized below in Table 25. The excipients were classified by the results as below.

[4] = tested on: IL-2 secretion of activated Jurkat cells; assay: Inhibition of IL-2 secretion of activated Jurkat cells (ELISA); type: cell-based; conditions: 1 μM, 3 μM, and 10 μM in DMSO; PMA+PHA activated; 24 h (FIG. 11)
Procedure: In each group, Jurkat cells were incubated with corresponding formulation. After 24 h, the secretion of IL-2 was detected by ELISA.

CC(C)/N=c1\cc2n(-c3ccc(Cl)cc3)c3ccccc3nc-2cc1Nc1ccc(Cl)cc1 [Clofazimine, N,5-bis(4-chlorophenyl)-3-propan-2-ylimino phenazin-2-amine]
time to reach peak plasma concentration (Tmax) ([1]; fasted state): 12 h | time to reach peak plasma concentration (Tmax) ([1]; fed conditions): 8 h | absorption rate ([1]; oral, FDA Label information): 45-62% | solubility ([2]; oil or lipid, Heptanoic acid): 78.3 mg/mL (≈ 165 mM) | solubility ([2]; oil or lipid, Hexanoic acid): 80.7 mg/mL (≈ 170 mM) | solubility ([2]; oil or lipid, Linoleic acid): 90.2 mg/mL (≈ 191 mM) | solubility ([2]; oil or lipid, Octanoic acid): 56.3 mg/mL (≈ 119 mM) | solubility ([2]; oil or lipid, Oleic acid): 106 mg/mL (≈ 223 mM) | solubility ([2]; organic solvent or mixture, Acetic acid): 30.2 mg/mL (≈ 63.8 mM) | solubility ([2]; organic solvent or mixture, Butyric acid): 49.2 mg/mL (≈ 104 mM) | solubility ([2]; organic solvent or mixture, Isovaleric acid): 58.6 mg/mL (≈ 124 mM) | solubility ([2]; organic solvent or mixture, Propionic acid): 28.2 mg/mL (≈ 59.7 mM) | chemical stability (hydrolysis, oxidation) [3]: easily hydrolyzed and oxidized | Degradation total impurities ([3]; Campmul MCM (1:100)): >1% | Degradation total impurities ([3]; Campmul MCM + water (1:100:800)): >1% | Degradation total impurities ([3]; Gelucire 44/14 (1:100)): >1% | Degradation total impurities ([3]; Oleic acid (1:50)): 0.5-1% | Degradation total impurities ([3]; Oleic acid + labrasol (1:50:100)): >1% | Degradation total impurities ([3]; PEG 400 (1:400)): >1% | Degradation total impurities ([3]; PEG 3350 (1:400)): 0-0.5% | Degradation total impurities ([3]; RH 40 (1:100)): 0-0.5% | Degradation total impurities ([3]; Stearyl alcohol (1:70)): 0-0.5% | Degradation total impurities ([3]; Tefose 63 (1:100)): >1% | Degradation total impurities ([3]; Vaseline (1:3000)): 0-0.5% | Degradation total impurities ([3]; glycerin (1:2500)): 0-0.5% | Degradation total impurities ([3]; labrasol (1:100)): 0.5-1% | Degradation total impurities ([3]; labrasol + carbomer (1:100:5)): 0.5-1% | Degradation total impurities ([3]; labrasol + water (1:100:800)): 0.5-1% | Degradation total impurities ([3]; liquid paraffin (1:1000)): 0-0.5% | Degradation total impurities ([3]; oleic acid + labrasol + water (1:50:100:800)): >1% | Degradation total impurities ([3]; propyl glycol (1:2500)): 0-0.5% | Degradation total impurities ([3]; transcutol + tween 80 (1:100:100)): >1% | Degradation total impurities ([3]; transcutol + water (1:100:800)): 0.5-1% | Degradation total impurities ([3]; trascutol (1:100)): >1% | Degradation total impurities ([3]; tween 80 (1:100)): >1% | Degradation total impurities ([3]; tween 80 + water (1:100:800)): >1% | chemical stability of clofazimine in lipid excipients ([3]; lipid excipients such as PEG 3350, stearyl alcohol, vaseline, and liquid paraffin): enhanced chemical stability | secretion of IL-2 [4]: significantly inhibited
